Experiments:
[1] = system: patients suffering from migraine; assay: Pilot double-blind placebo-controlled crossover trial, prophylactic effect in migraine; format: in vivo, human
Description: A study in which the effects of the angiotensin II type 1 receptor antagonist candesartan cilexetil (Atacand®) is compared to that of placebo, was carried out to explore the feasability of giving candesartan cilexetil to patients suffering from, or susceptible to, vascular headache conditions, and especially migraine.
The pilot study was a double-blind placebo-controlled crossover trial on the prophylactic effect of the AT II antagonist candesartan cilexetil performed in patients suffering from migraine.
The study provides preliminary data on the feasibility of administering candesartan cilexetil for preventing migraine. It also provides preliminary data on useful concentrations of candesartan cilexetil in this use.

[2] = system: patients having mild-to-moderate hypertension; conditions: hypertensive patients, versus placebo; cited from earlier work

**Q.** What does the source list for `CCOc1nc2cccc(C(=O)OC(C)OC(=O)OC3CCCCC3)c2n1Cc1ccc(-c2ccccc2-c2nn[nH]n2)cc1` (stereo not drawn) [candesartan cilexetil]?
**A.** relief of symptoms (migraine) ([1]; one patient with a medical history of migraine, treating themself with Atacand 16 mg, relief subjectively noted): significant relief of symptoms; relief of symptoms (migraine) ([1]; the other patient with a medical history of migraine, relief subjectively noted after treatment with Atacand): significant relief of symptoms

**Q.** For `CCCCC1=NC2(CCCC2)C(=O)N1Cc1ccc(-c2ccccc2-c2nnn[nH]2)cc1` [irbesartan], which incidence of headache [2] is on record?
**A.** Its incidence of headache is “significant reduction”.

From patent publication US7872035B2, “Angiotensin II antagonists” (AstraZeneca AB, priority 2001, dated 2011)
